For data set [1] the following is noted: cited from earlier work.
For data set [2] the following is noted: administered locally; cited from earlier work.
For data set [3] the following is noted: cited from earlier work. This is another data set of the same source.
Data set [4] in a line: Phase I study of the toxicity of local carboplatin. It is filed as in vivo. The note with it: following 6 local injections of carboplatin. The procedure: Protection Against Local Orbital or Periocular Toxicity: The periocular delivery of therapeutic agents is employed when increased amounts of the agent are needed inside the eye. In the case of advanced intraocular retinoblastoma, tumor cells in the vitreous gel are not exposed to sufficient amounts of the chemotherapeutic agents. For this reason, local periocular carboplatin is added to the regimen of systemic chemotherapy for advanced disease. […] Mulvihill et al. reported the complications associated with periocular injections of the chemotherapeutic agent carboplatin in infants with retinoblastoma. This emphasizes the need of a sealed system for unidirectional delivery of toxic agents to the eye.

Regarding `CO[C@@H]1[C@H](N(C)C(=O)c2ccccc2)C[C@H]2O[C@]1(C)n1c3ccccc3c3c4c(c5c6ccccc6n2c5c31)C(=O)NC4` [PKC412], the “side effects when administered orally” value in data set [1] (administered orally) was “nausea and diarrhea”. In addition, the “toxicity by the periocular route” value in data set [1] (periocular route, simple injections) was “ocular irritation and toxicity was observed”.
`COc1cc([C@@H]2c3cc4c(cc3[C@@H](O[C@@H]3O[C@@H]5CO[C@@H](C)O[C@H]5[C@H](O)[C@H]3O)[C@H]3COC(=O)[C@H]23)OCO4)cc(OC)c1O` [Etoposide]: the local toxicity result in data set [2] is “extremely toxic when administered locally”.
For `N.N.O=C([O-])C1(C(=O)[O-])CCC1.[Pt+2]` [carboplatin], the local tissue tolerance entry in data set [3] (bolus injected into the periocular space) is recorded as “well tolerated by the local tissue”. In addition, the “complications after periocular injection” value in data set [3] (periocular injections, after a certain period following the injection) is listed as “ocular motility problems, including restriction of the eye movements”. For the same compound, the long-term toxic effects result in data set [4] was “atrophy of the orbital fat and connective tissue”.

The values are drawn from patent publication US7749528B2, “Implantable and sealable medical device for unidirectional delivery of therapeutic agents to tissues” (priority 2001, dated 2010).
